# Experimental data published in patent publication US20160367623A1, “AGONISTS OF GUANYLATE CYCLASE USEFUL FOR THE TREATMENT OF GASTROINTESTINAL DISORDERS, INFLAMMATION, CANCER AND OTHER DISORDERS” (priority 2015, published 2016).
# Bridge positions count the residues as written; N and C are the ends. Ends that are not written are not given here.
# Assays:
# [1] = tested on: patients with chronic idiopathic constipation (CIC); assay: First phase 3 CIC trial: stool consistency, Bristol Stool Form Scale (BSFS) change from baseline; type: in vivo, human; settings: for Change from Baseline in Stool Consistency, Difference from Placebo: overall 12-week; for Change from Baseline in Stool Consistency (BSFS), LS Mean (SE): overall average across the 12-week treatment period, ITT; for mean increase from baseline in BSFS score: placebo 0.77
# Text: Both trials include a two-week pre-treatment baseline period, a 12-week treatment period, and a two-week post-treatment period. The phase 3 CIC program was designed to support regulatory submission in the U. S.
# Patients were selected using Rome 3 criteria modified for CIC and had (1) fewer than 3 defecations per week, (2) loose stools occurring rarely without laxatives, (3) inadequate criteria for irritable bowel syndrome with constipation (IBS-C), and (4) at least two of the following applied to at least 25% of defecations: (a) straining during evacuation, (b) lumpy or hard stools, (c) sensation of anorectal obstruction or blockage. Rome 3 requires patients to fulfill the criteria for the last 3 months with symptom onset at least 6 months prior to diagnosis.
# [2] = tested on: patients with chronic idiopathic constipation (CIC); settings: in vivo
# [3] = tested on: patients with chronic idiopathic constipation (CIC); assay: Second phase 3 CIC trial: patient disposition, reasons for discontinuation; settings: All Randomized
substance,measurement,setting,value
"Asn^1-Asp^2-Glu^3-Cys^4-Glu^5-Leu^6-Cys^7-Val^8-Asn^9-Val^10-Ala^11-Cys^12-Thr^13-Gly^14-Cys^15-Leu^16 (NDECELCVNVACTGCL; disulfide 4-12, 7-15) [Plecanatide]","Week 1 Change from Baseline in Stool Consistency, Difference from Placebo",[1]; 3 mg,0.92
same,"Week 1 Change from Baseline in Stool Consistency, LS Mean (SE)",[1]; 3 mg,1.50 (0.071)
same,stool consistency after discontinuation of treatment,"[1]; 3.0 mg and 6.0 mg, post-treatment period",returned towards baseline with no indication of an exaggerated or rebound effect
same,"Week 1 Change from Baseline in Stool Consistency, Mean (SD)","[1]; 3 mg, n 414",1.57 (1.563)
same,"Change from Baseline in Stool Consistency, Difference from Placebo",[1]; 3 mg,0.76
same,"Change from Baseline in Stool Consistency (BSFS), LS Mean (SE)",[1]; 3 mg,1.53 (0.058)
same,mean increase from baseline in BSFS score,[1]; 3.0 mg,1.53
same,"Week 1 Change from Baseline in Stool Consistency, Difference from Placebo",[1]; 6 mg,0.85
same,"Week 1 Change from Baseline in Stool Consistency, LS Mean (SE)",[1]; 6 mg,1.42 (0.072)
same,"Week 1 Change from Baseline in Stool Consistency, Mean (SD)","[1]; 6 mg, n 399",1.42 (1.640)
same,"Change from Baseline in Stool Consistency, Difference from Placebo",[1]; 6 mg,0.75
same,"Change from Baseline in Stool Consistency (BSFS), LS Mean (SE)",[1]; 6 mg,1.52 (0.059)
same,mean increase from baseline in BSFS score,[1]; 6.0 mg,1.52
same,"Week 1 Change from Baseline in Stool Consistency, Mean (SD)","[1]; Active Combined, n 813",1.49 (1.602)
same,"serum chemistries, hematology, urinalysis, ECG or vital signs",[2],No clinically relevant abnormalities were observed
same,"Discontinuation before Week 12 (EOT), primary reason Insufficient Therapeutic Effect, (%)",[3]; 3 mg (N = 470),(0.6) %
same,"Discontinuation before Week 12 (EOT), primary reason Insufficient Therapeutic Effect, (%)",[3]; 6 mg (N = 471),(0.2) %
